What was measured:
[1] = biological target: Muscarinic acetylcholine receptor M2 (Homo sapiens) (UniProt P08172); assay: Inhibition of human M2 receptor at 1 uM relative to control
[2] = biological target: 5-hydroxytryptamine receptor 2A (Homo sapiens) (UniProt P28223); assay: Inhibition of human 5-HT2A receptor at 1 uM relative to control
[3] = species on record: Homo sapiens; assay: Inhibition of human chloride channel at 1 uM relative to control
[4] = biological target: Voltage-dependent L-type calcium channel subunit alpha-1C (Homo sapiens, UniProt Q13936); assay: Inhibition of CaV1.2 (unknown origin)
[5] = biological target: C-X-C chemokine receptor type 2 (Homo sapiens) (UniProt P25025); assay: Inhibition of human CXCR2 receptor at 1 uM relative to control
[6] = species on record: Homo sapiens; assay: Inhibition of human SKCa channel at 1 uM relative to control
[7] = system: Rattus norvegicus; assay: In vivo inhibition of soluble epoxide hydrolase in rat assessed as increase in leukotoxin/leukotoxin diol ratio in plasma at 0.2 to 20 mg/kg, po measured after 4 hrs relative to vehicle-treated control; format: functional; details: dose mg/kg 0.2-20
[8] = biological target: Kappa-type opioid receptor (Homo sapiens) (UniProt P41145); assay: Inhibition of human kappa opioid receptor at 1 uM relative to control
[9] = biological target: Adenosine receptor A2a (Homo sapiens) (UniProt P29274); assay: Inhibition of human adenosine A2A receptor at 1 uM relative to control
[10] = biological target: Neuropeptide Y receptor type 2 (Homo sapiens) (UniProt P49146); assay: Inhibition of human Y2 receptor at 1 uM relative to control
[11] = biological target: Neuropeptide Y receptor type 1 (Homo sapiens) (UniProt P25929); assay: Inhibition of human Y1 receptor at 1 uM relative to control
[12] = biological target: Sodium channel protein type 5 subunit alpha (Homo sapiens, UniProt Q14524); assay: Inhibition of NaV1.5 (unknown origin)
[13] = biological target: Adrenergic receptor alpha-1 (Homo sapiens) (UniProt P35348+P25100+P35368); assay: Inhibition of human alpha1 receptor at 1 uM relative to control
[14] = system: Rattus norvegicus; assay: Dose normalized AUC in rat at 2 mg/kg, iv; format: ADME, organism-based; parameters: dose 2 mg/kg, route intravenous; details: in vivo
[15] = biological target: Cholecystokinin receptor type A (Homo sapiens) (UniProt P32238); assay: Inhibition of human CCK1 receptor at 1 uM relative to control
[16] = biological target: Histamine H2 receptor (Homo sapiens) (UniProt P25021); assay: Inhibition of human histamine H2 receptor at 1 uM relative to control
[17] = Volume of distribution at steady state in rat at 2 mg/kg, iv; format: ADME, organism-based; parameters: dose 2 mg/kg, route intravenous; details: in vivo, read-out: Vdss
[18] = biological target: Sodium-dependent dopamine transporter (Homo sapiens) (UniProt Q01959); assay: Inhibition of human dopamine transporter at 1 uM relative to control
[19] = system: Rattus norvegicus; assay: Free maximum concentration of drug in rat at 0.2 mg/kg, po; format: ADME, organism-based; parameters: dose 0.2 mg/kg, route oral; details: in vivo
[20] = biological target: D(2) dopamine receptor (Homo sapiens) (UniProt P14416); assay: Inhibition of human dopamine D2S receptor at 1 uM relative to control
[21] = biological target: Endothelin-1 receptor (Homo sapiens) (UniProt P25101); assay: Inhibition of human ETA receptor at 1 uM relative to control
[22] = system: Rattus norvegicus; assay: Free maximum concentration of drug in rat at 2 mg/kg, po; format: ADME, organism-based; parameters: dose 2 mg/kg, route oral; details: in vivo
[23] = biological target: Mu-type opioid receptor (Homo sapiens) (UniProt P35372); assay: Inhibition of human mu opioid receptor at 1 uM relative to control
[24] = biological target: 5-hydroxytryptamine receptor 1B (Homo sapiens) (UniProt P28222); assay: Inhibition of human 5-HT1B receptor at 1 uM relative to control
[25] = biological target: Melatonin receptor type 1A (Homo sapiens) (UniProt P48039); assay: Inhibition of human MT1 receptor at 1 uM relative to control
[26] = biological target: Cytochrome P450 2C8 (Homo sapiens, UniProt P10632); assay: Inhibition of CYP2C8 (unknown origin); format: ADME
[27] = Cmax in rat at 20 mg/kg, po; format: ADME, organism-based; parameters: dose 20 mg/kg, route oral; details: in vivo
[28] = Plasma clearance in rat at 1 mg/kg, iv; format: ADME, organism-based; parameters: dose 1 mg/kg, route intravenous
[29] = biological target: Adrenergic receptor alpha-2 (Homo sapiens) (UniProt P08913+P18825+P18089); assay: Inhibition of human alpha2 receptor at 1 uM relative to control
[30] = biological target: Sodium-dependent noradrenaline transporter (Homo sapiens) (UniProt P23975); assay: Inhibition of human norepinephrine transporter at 1 uM relative to control
[31] = species on record: Homo sapiens; assay: Inhibition of human GABA receptor at 1 uM relative to control
[32] = biological target: Substance-K receptor (Homo sapiens) (UniProt P21452); assay: Inhibition of human NK2 receptor at 1 uM relative to control
[33] = biological target: Muscarinic acetylcholine receptor M3 (Homo sapiens) (UniProt P20309); assay: Inhibition of human M3 receptor at 1 uM relative to control
[34] = biological target: Vasoactive intestinal polypeptide receptor 1 (Homo sapiens) (UniProt P32241); assay: Inhibition of human VPAC1 receptor at 1 uM relative to control
[35] = biological target: Adenosine receptor A1 (Homo sapiens) (UniProt P30542); assay: Inhibition of human adenosine A1 receptor at 1 uM relative to control
[36] = system: Rattus norvegicus; assay: Free maximum concentration of drug in rat at 20 mg/kg, po; format: ADME, organism-based; parameters: dose 20 mg/kg, route oral; details: in vivo
[37] = Cmax in rat at 2 mg/kg, po; format: ADME, organism-based; parameters: dose 2 mg/kg, route oral; details: in vivo
[38] = biological target: 5-hydroxytryptamine receptor 7 (Homo sapiens) (UniProt P34969); assay: Inhibition of human 5-HT7 receptor at 1 uM relative to control
[39] = biological target: Muscarinic acetylcholine receptor M4 (Homo sapiens) (UniProt P08173); assay: Inhibition of human M4 receptor at 1 uM relative to control
[40] = Oral bioavailability in rat; format: ADME, organism-based; details: in vivo
[41] = biological target: Beta-2 adrenergic receptor (Homo sapiens) (UniProt P07550); assay: Inhibition of human beta2 receptor at 1 uM relative to control
[42] = biological target: 5-hydroxytryptamine receptor 6 (Homo sapiens) (UniProt P50406); assay: Inhibition of human 5-HT6 receptor at 1 uM relative to control
[43] = biological target: Muscarinic acetylcholine receptor M1 (Homo sapiens) (UniProt P11229); assay: Inhibition of human M1 receptor at 1 uM relative to control
[44] = species on record: Homo sapiens; assay: Inhibition of human BZD receptor at 1 uM relative to control
[45] = biological target: Vasopressin V1a receptor (Homo sapiens) (UniProt P37288); assay: Inhibition of human vasopressin V1a receptor at 1 uM relative to control
[46] = biological target: Histamine H1 receptor (Homo sapiens) (UniProt P35367); assay: Inhibition of human histamine H1 receptor at 1 uM relative to control
[47] = Half life in rat at 2 mg/kg, iv; format: ADME, organism-based; parameters: dose 2 mg/kg, route intravenous; details: in vivo

Muscarinic acetylcholine receptor M4 (Homo sapiens), sequence (P08173 whole entry): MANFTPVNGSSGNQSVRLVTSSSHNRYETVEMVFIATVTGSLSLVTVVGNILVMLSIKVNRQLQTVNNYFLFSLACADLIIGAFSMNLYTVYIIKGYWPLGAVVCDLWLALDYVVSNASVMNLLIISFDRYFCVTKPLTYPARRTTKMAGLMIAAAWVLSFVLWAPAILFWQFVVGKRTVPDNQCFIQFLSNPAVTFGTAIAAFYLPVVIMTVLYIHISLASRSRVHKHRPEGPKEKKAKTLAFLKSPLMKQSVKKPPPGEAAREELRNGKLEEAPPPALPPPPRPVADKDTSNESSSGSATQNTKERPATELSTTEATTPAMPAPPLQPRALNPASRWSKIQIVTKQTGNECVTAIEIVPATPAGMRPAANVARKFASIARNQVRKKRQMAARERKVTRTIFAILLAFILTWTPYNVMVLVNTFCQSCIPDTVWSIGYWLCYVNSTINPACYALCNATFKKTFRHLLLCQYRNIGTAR
Muscarinic acetylcholine receptor M3 (Homo sapiens), sequence (P20309 whole entry, looked up): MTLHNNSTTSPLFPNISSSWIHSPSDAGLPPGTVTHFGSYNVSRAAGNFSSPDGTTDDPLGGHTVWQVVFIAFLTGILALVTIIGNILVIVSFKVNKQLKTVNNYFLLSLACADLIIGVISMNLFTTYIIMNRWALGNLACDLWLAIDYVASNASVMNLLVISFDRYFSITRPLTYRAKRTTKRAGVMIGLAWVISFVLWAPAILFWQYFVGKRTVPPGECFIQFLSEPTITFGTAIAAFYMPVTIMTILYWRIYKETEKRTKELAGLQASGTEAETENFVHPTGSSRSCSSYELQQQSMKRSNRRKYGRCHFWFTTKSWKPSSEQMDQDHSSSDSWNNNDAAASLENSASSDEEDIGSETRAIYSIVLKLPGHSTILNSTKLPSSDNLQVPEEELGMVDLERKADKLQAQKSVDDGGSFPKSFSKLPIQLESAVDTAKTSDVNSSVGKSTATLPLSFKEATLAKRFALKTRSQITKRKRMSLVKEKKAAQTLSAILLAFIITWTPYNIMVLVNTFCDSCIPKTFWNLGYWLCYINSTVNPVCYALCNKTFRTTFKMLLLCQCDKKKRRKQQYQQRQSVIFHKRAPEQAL
Muscarinic acetylcholine receptor M2 (Homo sapiens), sequence (P08172 whole entry): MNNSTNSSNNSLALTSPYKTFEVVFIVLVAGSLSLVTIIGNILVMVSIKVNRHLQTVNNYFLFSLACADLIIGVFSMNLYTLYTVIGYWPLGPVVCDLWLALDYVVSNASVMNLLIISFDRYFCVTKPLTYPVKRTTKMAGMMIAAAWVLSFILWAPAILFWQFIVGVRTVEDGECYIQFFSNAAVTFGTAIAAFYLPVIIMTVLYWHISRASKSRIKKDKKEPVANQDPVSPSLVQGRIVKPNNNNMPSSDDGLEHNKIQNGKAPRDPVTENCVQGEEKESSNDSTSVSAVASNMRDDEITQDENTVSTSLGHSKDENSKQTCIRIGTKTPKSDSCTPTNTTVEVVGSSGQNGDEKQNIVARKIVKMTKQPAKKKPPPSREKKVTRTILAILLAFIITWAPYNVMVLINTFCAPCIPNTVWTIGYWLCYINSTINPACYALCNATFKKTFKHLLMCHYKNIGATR
Neuropeptide Y receptor type 1 (Homo sapiens), sequence (P25929 whole entry): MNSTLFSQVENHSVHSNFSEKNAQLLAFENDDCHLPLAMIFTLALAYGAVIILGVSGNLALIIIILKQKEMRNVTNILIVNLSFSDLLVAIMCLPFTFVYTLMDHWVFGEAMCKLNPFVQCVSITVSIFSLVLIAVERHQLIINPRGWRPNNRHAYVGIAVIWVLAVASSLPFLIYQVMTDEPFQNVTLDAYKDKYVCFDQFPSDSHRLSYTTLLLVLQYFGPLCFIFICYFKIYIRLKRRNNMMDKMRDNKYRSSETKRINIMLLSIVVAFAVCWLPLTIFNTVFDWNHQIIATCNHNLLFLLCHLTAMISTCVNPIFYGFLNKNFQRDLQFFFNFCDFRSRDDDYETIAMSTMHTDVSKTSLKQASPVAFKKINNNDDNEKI
Cholecystokinin receptor type A (Homo sapiens), sequence (P32238 whole entry): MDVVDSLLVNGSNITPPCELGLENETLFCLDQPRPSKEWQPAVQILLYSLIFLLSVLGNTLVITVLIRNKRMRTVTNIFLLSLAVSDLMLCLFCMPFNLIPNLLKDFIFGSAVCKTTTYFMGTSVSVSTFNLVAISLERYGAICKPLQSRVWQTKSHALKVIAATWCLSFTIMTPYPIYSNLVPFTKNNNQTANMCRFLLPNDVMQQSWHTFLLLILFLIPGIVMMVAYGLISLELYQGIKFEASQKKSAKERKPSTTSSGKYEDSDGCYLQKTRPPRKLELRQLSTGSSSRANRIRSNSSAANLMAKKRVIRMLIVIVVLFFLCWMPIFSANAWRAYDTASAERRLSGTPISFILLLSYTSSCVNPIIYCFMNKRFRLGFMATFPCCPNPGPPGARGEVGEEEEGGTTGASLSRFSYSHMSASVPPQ
Sodium channel protein type 5 subunit alpha, sequence (Q14524 whole entry): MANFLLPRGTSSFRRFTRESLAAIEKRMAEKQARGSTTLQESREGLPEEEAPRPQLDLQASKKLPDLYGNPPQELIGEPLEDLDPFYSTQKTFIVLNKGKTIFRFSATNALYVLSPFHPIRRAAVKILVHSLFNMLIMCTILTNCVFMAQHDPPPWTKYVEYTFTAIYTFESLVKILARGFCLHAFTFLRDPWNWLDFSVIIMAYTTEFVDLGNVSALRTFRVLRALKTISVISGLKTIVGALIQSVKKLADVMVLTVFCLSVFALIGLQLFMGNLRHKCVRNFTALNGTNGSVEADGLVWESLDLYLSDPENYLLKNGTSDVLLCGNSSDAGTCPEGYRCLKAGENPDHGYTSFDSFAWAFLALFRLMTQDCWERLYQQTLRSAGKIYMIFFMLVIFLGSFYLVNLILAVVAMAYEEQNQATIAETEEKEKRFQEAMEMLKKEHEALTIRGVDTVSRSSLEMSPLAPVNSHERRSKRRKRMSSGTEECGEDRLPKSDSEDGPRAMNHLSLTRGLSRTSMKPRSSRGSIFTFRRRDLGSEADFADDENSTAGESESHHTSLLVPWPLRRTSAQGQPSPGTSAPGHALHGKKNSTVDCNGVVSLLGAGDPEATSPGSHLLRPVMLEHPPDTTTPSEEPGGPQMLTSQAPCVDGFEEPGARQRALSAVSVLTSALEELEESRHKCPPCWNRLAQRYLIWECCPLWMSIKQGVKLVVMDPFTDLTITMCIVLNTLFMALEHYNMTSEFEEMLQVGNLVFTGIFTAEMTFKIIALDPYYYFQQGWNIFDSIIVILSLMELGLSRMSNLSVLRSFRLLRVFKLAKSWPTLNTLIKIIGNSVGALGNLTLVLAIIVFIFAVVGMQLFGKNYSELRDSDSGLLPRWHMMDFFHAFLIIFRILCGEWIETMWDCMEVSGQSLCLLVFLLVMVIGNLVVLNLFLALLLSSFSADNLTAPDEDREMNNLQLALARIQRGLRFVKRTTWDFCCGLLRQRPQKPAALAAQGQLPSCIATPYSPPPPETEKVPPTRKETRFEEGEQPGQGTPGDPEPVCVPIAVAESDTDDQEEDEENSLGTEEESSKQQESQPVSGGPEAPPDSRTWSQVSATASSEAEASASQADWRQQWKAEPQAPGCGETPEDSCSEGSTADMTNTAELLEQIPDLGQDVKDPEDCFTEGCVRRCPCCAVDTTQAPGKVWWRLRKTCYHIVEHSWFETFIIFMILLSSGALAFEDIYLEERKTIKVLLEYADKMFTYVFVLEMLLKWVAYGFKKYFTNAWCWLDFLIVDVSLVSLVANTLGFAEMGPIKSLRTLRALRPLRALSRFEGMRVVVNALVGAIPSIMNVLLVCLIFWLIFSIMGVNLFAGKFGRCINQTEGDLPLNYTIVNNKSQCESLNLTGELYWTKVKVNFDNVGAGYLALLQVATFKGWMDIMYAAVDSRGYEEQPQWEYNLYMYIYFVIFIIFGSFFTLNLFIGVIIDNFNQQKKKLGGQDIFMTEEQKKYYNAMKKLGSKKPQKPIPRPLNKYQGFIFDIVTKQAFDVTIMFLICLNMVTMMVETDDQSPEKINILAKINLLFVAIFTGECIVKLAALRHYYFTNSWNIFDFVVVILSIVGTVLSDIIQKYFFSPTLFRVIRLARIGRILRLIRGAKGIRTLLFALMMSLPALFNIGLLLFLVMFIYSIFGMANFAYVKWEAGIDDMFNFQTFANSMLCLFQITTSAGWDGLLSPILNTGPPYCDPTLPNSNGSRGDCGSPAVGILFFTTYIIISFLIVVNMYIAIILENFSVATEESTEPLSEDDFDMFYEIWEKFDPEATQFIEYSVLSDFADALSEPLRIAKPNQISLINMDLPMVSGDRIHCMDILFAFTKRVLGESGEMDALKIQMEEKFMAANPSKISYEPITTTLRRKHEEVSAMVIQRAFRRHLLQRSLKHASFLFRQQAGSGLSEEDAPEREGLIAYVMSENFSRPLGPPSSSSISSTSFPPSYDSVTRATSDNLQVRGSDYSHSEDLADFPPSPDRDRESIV
Sodium-dependent dopamine transporter (Homo sapiens), sequence (Q01959 whole entry): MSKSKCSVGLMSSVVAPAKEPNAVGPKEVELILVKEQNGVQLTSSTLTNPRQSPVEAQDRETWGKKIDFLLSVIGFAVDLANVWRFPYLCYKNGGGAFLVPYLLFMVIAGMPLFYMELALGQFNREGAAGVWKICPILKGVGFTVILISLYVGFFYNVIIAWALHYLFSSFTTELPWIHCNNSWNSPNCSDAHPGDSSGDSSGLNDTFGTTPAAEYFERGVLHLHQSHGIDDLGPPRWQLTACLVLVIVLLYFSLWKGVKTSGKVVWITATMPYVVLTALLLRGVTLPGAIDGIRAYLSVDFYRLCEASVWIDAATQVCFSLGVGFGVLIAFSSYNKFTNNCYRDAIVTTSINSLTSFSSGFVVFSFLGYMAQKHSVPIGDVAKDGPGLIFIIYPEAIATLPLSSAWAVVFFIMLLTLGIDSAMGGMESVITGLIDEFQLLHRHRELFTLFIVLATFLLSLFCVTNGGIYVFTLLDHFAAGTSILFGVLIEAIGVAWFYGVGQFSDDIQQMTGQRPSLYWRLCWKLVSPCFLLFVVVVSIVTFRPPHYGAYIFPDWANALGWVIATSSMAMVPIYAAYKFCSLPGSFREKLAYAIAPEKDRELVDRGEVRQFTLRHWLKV

CNc1nc(C)nc(N2CCC(C(=O)NCc3ccc(Br)cc3OC(F)(F)F)CC2)n1
inhibition [1]: < 50% | inhibition [2]: < 50% | inhibition [3]: < 50% | IC50 [4]: > 10 µM | inhibition [5]: < 50% | inhibition [6]: < 50% | inhibition (INH) [7]: 50% | inhibition [8]: < 50% | inhibition [9]: < 50% | inhibition [10]: < 50% | inhibition [11]: < 50% | IC50 [12]: > 10 µM | inhibition [13]: < 50% | AUC/dose [14]: 1.3 kg·h/L | inhibition [15]: < 50% | inhibition [16]: < 50% | Vd [17]: 2.1 L/kg | inhibition [18]: < 50% | fCmax [19]: 0.25 nM | inhibition [20]: < 50% | inhibition [21]: < 50% | fCmax [22]: 3 nM | inhibition [23]: < 50% | inhibition [24]: < 50% | inhibition [25]: < 50% | IC50 [26]: > 30 µM | Cmax [27]: 1490 nM | clearance [28]: 12 mL/min/kg | inhibition [29]: < 50% | inhibition [30]: < 50% | inhibition [31]: < 50% | inhibition [32]: < 50% | inhibition [33]: < 50% | inhibition [34]: < 50% | inhibition [35]: < 50% | fCmax [36]: 24 nM | Cmax [37]: 223 nM | inhibition [38]: < 50% | inhibition [39]: < 50% | bioavailability [40]: 100% | inhibition [41]: < 50% | inhibition [42]: < 50% | inhibition [43]: < 50% | inhibition [44]: < 50% | inhibition [45]: < 50% | inhibition [46]: < 50% | half-life [47]: 4.6 h

— ChEMBL document CHEMBL2390902, “Discovery of 1-(1,3,5-triazin-2-yl)piperidine-4-carboxamides as inhibitors of soluble epoxide hydrolase” (Bioorg Med Chem Lett, 2013)
